The values below come from patent US20210395247A1, “BTK INHIBITORS, PHARMACEUTICALLY ACCEPTABLE SALTS, POLYMORPHS AND APPLICATION THEREOF” (SHANGHAI HAIYAN PHARMACEUTICAL TECHNOLOGY CO., LTD., priority 2019, published 2021).

Converted amounts (≈) assume the structure as drawn. Like-named read-outs stand apart in the source and are kept apart here.

In one data set the target is T1, BTK WT (Homo sapiens, UniProt Q06187).
T1 construct: purchased Invitrogen PV3363
Description: Lantha screening kinase reaction experiment (BTK WT inhibition). It is filed as biochemical. As to the method: The compound was predissolved in 100% DMSO. 10 mM drug stock solution was obtained by dissolution at room temperature and then serially diluted with 8 vol % DMSO solution to a final concentration of 10-0.005 μM. 2.5 μl of a solution of substance to be tested and 2.5 μl of kinase (Invitrogen PV3363) diluted with the reaction buffer were added into each well of 384-well plate (Corning 3676), and then the mixture of Fluososcei-PolyGT (Invitrogen PV3610) substrate and ATP (Invitrogen PV3227) diluted with 5 μl of the reaction buffer were added to initiate the reaction. Among the wells, the kinase in the blank well was replaced with a reaction buffer and the kinase well (Enzyme) was not added with any drug. After shaking at 25° C. for 60 minutes in the dark, 10 μl of Detection Solution (mixture of Invitrogen PV3528 and EDTA, which was diluted with TR-FRET dilution buffer, the working concentration of EDTA was 5 mM, the working concentration of Lanthascreening Tb PY20 antibody was 0.2 nM) was added and shaken at room temperature for 30 minutes. The plates were read on a VictorX5 fluorescent plate reader (PerkinElmer) and the light absorption at an excitation wavelength of 340 nm and emission wavelengths of 500 nm and 520 nm was measured. […]
2. […] The half-inhibitory concentration IC50 was calculated by fitting with XLFIT 5.0 software (IDBS, UK).

A further data set concerns the target T2, βBTK Y223 (Homo sapiens, UniProt Q06187).
T2 construct: endogenous in cells; host or cells: Ramos cells
Put plainly: Intracellular βBTK Y223 phosphorylation HTRF detection in Ramos cells. The note with it: sodium pervanadate. It is filed as cell-based. As to the method:
The compound was predissolved in 100% DMSO. 10 mM drug stock solution was obtained by dissolution at room temperature and then serially diluted with 5 vol % DMSO solution to a final concentration of 3-0.0014 μM. Ramos cells were seeded into 96-well plates at a density of 4×10^5/well with 45 μl of 1640 medium containing 10% (V/V) FBS per well, and 5 μl of diluted solution of substance to be tested was added to each well, which was incubated for 1 hour at 37° C., 5% (V/V) CO2. 10 μl of sodium pervanadate dilution (diluted with 1640 without serum) was added, and to the negative control wells was added 10 μl of serum-free medium, which was incubated at 25° C. for 30 minutes on a shaker. 20 μl of lysate (4× lysate: blocked mother liquor is 25:1) was added to each well and incubated for 30 minutes at 25° C. on a shaker. It was shaken on an oscillator at 800 rpm for 1 minute. […] The plates were read on a VictorX5 fluorescent plate reader (PerkinElmer) and the light absorption at an excitation wavelength of 317 nm and emission wavelengths of 500 nm and 520 nm was measured (referring to the specification of 63ADK017PEH, Cisbio). The half-inhibitory concentration IC50 was calculated by fitting with XLFIT 5.0 software (IDBS, UK).

For a further data set, the target named is T3, wild-type EGFR kinase (Homo sapiens, UniProt P00533).
T3 construct: purchased Invitrogen PV3872
Put plainly: Wild type EGFR kinase inhibition test (z-lyte). It is filed as biochemical. As to the method: All the following reagents used in z-lyte test are commercially available from Invitrogen.
The inhibitory effects of compounds to be tested on wild-type EGFR kinase (Invitrogen, PV3872) were measured by z-lyte methods.
The working concentration of each component in 10 μl wild-type EGFR kinase reaction system was: 10 μM ATP, 0.8 ng/μl wild-type EGFR kinase (Invitrogen, PV3872), 2 μM Tyr04 substrate (Invitrogen, PV3193). After the compounds to be tested were added, the final concentration of DMSO was 2%.
10 mM drug stock solutions dissolved at room temperature were gradiently diluted with 4% DMSO in water to a final concentrations of 10-0.005 μM. To each well were added 2.5 μl of a solution of the compounds to be tested and 5 μl of a mixture of wild-type EGFR kinase and Tyr04 substrate diluted with a reaction buffer, and then 2.5 μl of ATP was added to initiate the reaction. […] The plates were read in a VictorX5 fluorescent microplate reader (PerkinElmer) and the light absorbance at an excitation wavelength of 405 nm and emission wavelengths of 450 nm and 520 nm was measured (For example, C3520 nm represents the reading of C3 well at 520 nm). […]
The half-inhibitory concentration IC50 was calculated by fitting with XLFIT 5.0 software (IDBS, UK).

The nature of data set [1]: Stability experiment (40° C./75% RH accelerated stability box and 60° C. oven). The data set is classed as physicochemical. As to the method: The compound of formula X (amorphous) and crystal form A are placed in a 40° C./75% RH accelerated stability box and a 60° C. oven respectively, and take samples at fixed time points.
The nature of a further data set: Solubility experiment. It is filed as physicochemical. As to the method: About 5 mg of the compound of formula X (amorphous), crystal form I and crystal form A were weighed into each centrifuge tube, and 0.5 ml or 1 ml of corresponding medium was added, and ultrasonic vibration is conducted to make it dissolved as much as possible to form a supersaturated solution, centrifuged and the supernatant (if the solubility is high, dilute it) was taken into the liquid chromatography to calculate the solubility, 5.69 mg of the compound of formula X (amorphous) can be completely dissolved in 0.5 ml of 0.1M HCl medium, 4.24 mg of crystal form I can be completely dissolved in 1 ml of 0.1M HCl medium, the experimental results are shown in table 12: […]

Data set [2] can be described thus: Dynamic Vapor Sorption (DVS). The data set is classed as physicochemical. As to the method:
The Dynamic Vapor Sorption (DVS) curve: acquired on the DVS Intrinsic of Surface Measurement Systems. The relative humidity at 25° C. is corrected with the deliquescence points of LiCl, Mg (NO3)2 and KCl.

The nature of data set [3]: Thermogravimetric analysis (TGA). The data set is classed as physicochemical. The note with it: below 250° C. From the text: TGA and DSC pattern: TGA and DSC pattern were collected on TA Q500/5000 thermogravimetric analyzer and TA Q200/2000 differential scanning calorimeter respectively.
Data set [4] is described as follows: Stability experiment of crystal form I (60° C. oven). It is filed as physicochemical. As to the method: The sample is weighed and placed in an oven at 60° C., and taken for test at a fixed time point.
Data set [5] is described as follows: Stability experiment of the crystal forms of the free base (mixed forms shaken under suspension in solvents, XRD). The data set is classed as physicochemical. The conditions noted are these: 50° C. 1 day, room temperature 1 day and 7 days. As to the method: 80 mg of the compound of formula X in amorphous form, crystal form I, crystal form II and crystal form III were weighed respectively, and mixed them in a sample bottle; 20 mg of the mixture was weighed into each centrifuge tube, a total of 15 samples (5 experimental solvents, 3 experimental conditions); Experimental solvents: acetone, acetonitrile, ethyl acetate, isopropanol and ethanol; Experimental conditions: 1 day and 7 days at room temperature, 1 day at 50° C. The experimental conditions and results are as follows: […]

T1 sequence (Q06187 whole entry): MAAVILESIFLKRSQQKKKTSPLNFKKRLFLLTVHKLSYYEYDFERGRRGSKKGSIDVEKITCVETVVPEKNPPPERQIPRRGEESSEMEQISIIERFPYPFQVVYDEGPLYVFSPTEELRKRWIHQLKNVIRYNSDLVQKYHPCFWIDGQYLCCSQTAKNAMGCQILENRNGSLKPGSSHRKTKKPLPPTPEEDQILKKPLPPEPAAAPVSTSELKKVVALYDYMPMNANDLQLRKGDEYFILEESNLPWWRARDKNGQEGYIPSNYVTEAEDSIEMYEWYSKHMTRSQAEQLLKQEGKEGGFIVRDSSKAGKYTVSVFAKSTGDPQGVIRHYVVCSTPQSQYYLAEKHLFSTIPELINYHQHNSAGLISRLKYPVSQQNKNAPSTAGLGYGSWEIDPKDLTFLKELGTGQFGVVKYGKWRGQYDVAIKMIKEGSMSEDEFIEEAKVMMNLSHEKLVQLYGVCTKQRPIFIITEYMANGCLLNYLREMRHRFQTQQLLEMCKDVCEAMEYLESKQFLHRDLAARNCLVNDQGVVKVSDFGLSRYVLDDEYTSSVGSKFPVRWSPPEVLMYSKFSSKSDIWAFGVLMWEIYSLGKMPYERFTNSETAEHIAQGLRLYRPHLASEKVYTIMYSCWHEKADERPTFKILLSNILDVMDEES
T3 sequence (P00533 668-1210 limits assumed): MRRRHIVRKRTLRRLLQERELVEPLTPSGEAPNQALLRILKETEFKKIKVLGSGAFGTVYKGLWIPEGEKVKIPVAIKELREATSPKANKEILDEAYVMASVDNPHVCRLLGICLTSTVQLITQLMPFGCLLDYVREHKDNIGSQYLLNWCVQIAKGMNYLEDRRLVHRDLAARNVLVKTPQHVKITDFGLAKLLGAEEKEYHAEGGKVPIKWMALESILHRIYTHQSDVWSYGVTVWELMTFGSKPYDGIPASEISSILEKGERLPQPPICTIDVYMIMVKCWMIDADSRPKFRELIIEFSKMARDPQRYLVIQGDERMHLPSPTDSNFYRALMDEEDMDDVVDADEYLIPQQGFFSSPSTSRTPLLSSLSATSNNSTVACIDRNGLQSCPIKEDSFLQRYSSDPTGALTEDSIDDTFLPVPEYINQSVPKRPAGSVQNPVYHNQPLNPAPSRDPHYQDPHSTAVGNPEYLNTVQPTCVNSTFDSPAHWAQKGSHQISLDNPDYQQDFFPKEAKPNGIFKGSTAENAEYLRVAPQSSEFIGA
T2 sequence (Q06187 whole entry): as the sequence (Q06187 whole entry) above

Consider `C=CC(=O)N1CCC[C@H](Nc2nc(Nc3ccc(N4CCOCC4)cc3F)c3c(c2F)CNC3=O)C1` [(S)-6-((1-acryloylpiperidin-3-yl)amino)-7-fluoro-4-((2-fluoro-4-morpholinophenyl)amino)-1,2-dihydrogen-3H-pyrrolo[3,4-c]pyridin-3-one, reference compound], for which half-maximal inhibition at BTK WT (IC50) required 48 nM.
As to `C=CC(=O)N1CCC[C@@H](Nc2nc(Nc3ccc(N4CCOCC4)cc3F)c3c(c2F)CNC3=O)C1` [Compound of formula X, (R)-6-((1-acryloylpiperidin-3-yl)amino)-7-fluoro-4-((2-fluoro-4-morpholinophenyl)amino)-1,2-dihydrogen-3H-pyrrolo[3,4-c]pyridin-3-one], the IC50 against BTK WT is 2.4 nM; against βBTK Y223, 3 nM; at wild-type EGFR kinase (10 μM ATP, read-out: EGFR WT IC50) it was 932 nM. Moreover, at wild-type EGFR kinase (comparison of tables 14 and 16), the “selectivity BTK WT kinase over wild-type EGFR kinase (in words)” value is on record as “selective inhibitory activities against BTK WT kinase”. Also, the Content % came out at 100.00% in data set [1] (0 day); 100.62% in [1] (40° C./75% RH, 8 days); 100.70% in data set [1] (40° C./75% RH, 14 days); 100.82% in data set [1] (60° C., 8 days); 100.81% in data set [1] (60° C., 14 days). Besides, the “Total Impurity %” value amounted to 0% in data set [1] (0 day); 0% in data set [1] (40° C./75% RH, 8 days); 0% in data set [1] (40° C./75% RH, 14 days); 0% in [1] (60° C., 8 days); 0% in data set [1] (60° C., 14 days). The “chemical stability (conclusion in words)” value in data set [1] (40° C./75% RH and 60° C., 8 days and 14 days) is given as “stable”. Moreover, the Solubility in “Solubility experiment” (0.1M HCl medium, listed as Amorphous) was no less than 11380 µg/mL; in “Solubility experiment” (H2O, listed as Amorphous), 11 µg/mL; in the data set “Solubility experiment” (pH 4.5 medium, listed as Amorphous), 9 µg/mL; in “Solubility experiment” (pH 6.8 medium, listed as Amorphous), 7 µg/mL.
For `C=CC(=O)N1CCC[C@@H](Nc2nc(Nc3ccc(N4CCOCC4)cc3F)c3c(c2F)CNC3=O)C1` [crystal form I, (R)-6-((1-acryloylpiperidin-3-yl)amino)-7-fluoro-4-((2-fluoro-4-morpholinophenyl)amino)-1,2-dihydrogen-3H-pyrrolo[3,4-c]pyridin-3-one], the “weight gain of moisture absorption” value in [2] (90% RH, 25° C.) turned out to be 0.22%. For the same compound, in data set [2] (from DVS at 90% RH), the “hygroscopicity (in words)” value is listed as “slightly hygroscopic”. Besides, the TGA weight loss result in data set [3] was “basically no weight loss”. Further, the Content % in data set [4] (0 day) came out at 100.11%; in [4] (60° C., 1 week), 99.91%; in data set [4] (60° C., 2 weeks), 99.76%. For the same compound, the Relative substance % result in [4] (0 day) was “none”; in data set [4] (60° C., 1 week), “none”; in data set [4] (60° C., 2 weeks), “none”. Besides, the “chemical stability (conclusion in words)” value in data set [4] (60° C., 1 week and 2 weeks) is listed as “stable”. Also, the “crystal form stability by XRD” value in data set [4] (60° C., 1 week and 2 weeks) is “has not changed”. Further, the Solubility in “Solubility experiment” (0.1M HCl medium) was no less than 4240 µg/mL; in “Solubility experiment” (pH 4.5 medium, pH 4.5, aqueous buffer, thermodynamic from solid, pH 4.5 medium, read-out: Solubility), 8 µg/mL (≈ 16 µM); in “Solubility experiment” (pH 6.8 medium, pH 6.8, aqueous buffer, thermodynamic from solid, pH 6.8 medium, read-out: Solubility) it was 6 µg/mL (≈ 12 µM); in the data set “Solubility experiment” (water, thermodynamic from solid, H2O, read-out: Solubility) it was 7 µg/mL (≈ 14 µM). Moreover, the “form obtained from the mixture of amorphous and crystal forms I, II, III (XRD)” value in data set [5] (acetone), in [5] (acetonitrile), in data set [5] (ethyl acetate) and in data set [5] (isopropanol) was “stable crystal form” throughout.
Regarding `C=CC(=O)N1CCC[C@@H](Nc2nc(Nc3ccc(N4CCOCC4)cc3F)c3c(c2F)CNC3=O)C1` [crystal form III, (R)-6-((1-acryloylpiperidin-3-yl)amino)-7-fluoro-4-((2-fluoro-4-morpholinophenyl)amino)-1,2-dihydrogen-3H-pyrrolo[3,4-c]pyridin-3-one], the “form obtained from the mixture of amorphous and crystal forms I, II, III (XRD)” value in data set [5] (ethanol) is reported as “stable crystal form”.
